Assay results as given in patent US8802597B2, “Herbicidal pyrimidines” (E I du Pont de Nemours and Company, priority 2003, dated 2014).

Experiments:
Assay type in all cases: in vivo
[1] = tested on: Surinam grass (Brachiaria decumbens); assay: Test B pre/postemergence
How it was run: (§1)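 Plants treated pre- or postemergence were compared visually with controls after 13 to 15 days. Ratings ran from 0, no effect, to 100, complete control.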

[2] = tested on: barnyardgrass (Echinochloa crus-galli); assay: Test B pre/postemergence
How it was run: as §1

[3] = tested on: cocklebur (Xanthium strumarium); assay: Test B pre/postemergence
How it was run: as §1

corn (Zea mays) = assay: Test B pre/postemergence
How it was run: as §1

[4] = tested on: crabgrass (Digitaria sanguinalis); assay: Test B pre/postemergence
How it was run: as §1

[5] = tested on: giant foxtail (Setaria faberii); assay: Test B pre/postemergence
How it was run: as §1

[6] = tested on: lambsquarters (Chenopodium album); assay: Test B pre/postemergence; details: for Lambsquarters plant response rating: scale 0 to 100 (0 no effect, 100 complete control)
How it was run: as §1

[7] = tested on: morningglory (Ipomoea coccinea); assay: Test B pre/postemergence
How it was run: as §1

[8] = tested on: pigweed (Amaranthus retroflexus); assay: Test B pre/postemergence
How it was run: as §1

[9] = tested on: velvetleaf (Abutilon theophrasti); assay: Test B pre/postemergence
How it was run: as §1

[10] = tested on: wheat (Triticum aestivum); assay: Test B pre/postemergence
How it was run: as §1

[11] = tested on: blackgrass (Alopecurus myosuroides); assay: Test B postemergence
How it was run: as §1

wild oat (Avena fatua) = assay: Test B postemergence
How it was run: as §1

[12] = tested on: barnyardgrass (Echinochloa crus-galli); assay: Test B flooded paddy test; details: Flood, 1000 g ai/ha; scale 0 (no effect) to 100 (complete control)
How it was run: (§2)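 Rice, umbrella sedge, duck salad and barnyardgrass grown to 2-leaf stage under flooded paddy conditions and treated with formulated test chemicals. Kept in greenhouse 13–15 days, then visually rated against untreated controls on a 0–100 scale (0 no effect, 100 complete control).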

[13] = tested on: duck salad (Heteranthera limosa); assay: Test B flooded paddy test; details: Flood, 1000 g ai/ha; scale 0 to 100
How it was run: as §2

rice (Oryza sativa) = assay: Test B flooded paddy test; details: Flood, 1000 g ai/ha; scale 0 to 100
How it was run: as §2

[14] = tested on: umbrella sedge (Cyperus difformis); assay: Test B flooded paddy test; details: Flood, 1000 g ai/ha; scale 0 to 100
How it was run: as §2

[15] = Postemergence, 125 g ai/ha, scale 0 to 100 (0 no effect, 100 complete control)
[16] = Postemergence, 500 g ai/ha, scale 0 to 100
[17] = Preemergence, 125 g ai/ha, scale 0 to 100 (0 no effect, 100 complete control)
[18] = Preemergence, 500 g ai/ha, scale 0 to 100 (0 no effect, 100 complete control)
[19] = 125 g ai/ha, scale 0 to 100 (0 no effect, 100 complete control)

For `COC(=O)CNc1nc(C2CC2)nc(C(=O)OC)c1Br` [Compound 10], the “Surinam Grass plant response rating” value [1, 15] was 10, the “Plant response rating, Surinam Grass” value [1, 16] was 10 and the “Plant response rating, Surinam Grass” value [1, 17] was 0. The “Surinam Grass plant response rating” value [1, 18] was 0, the “Barnyardgrass plant response rating” value [2, 15] was 0 and the “Plant response rating, Barnyardgrass” value [2, 16] was 10. For the same compound, the “Plant response rating, Barnyardgrass” value [2, 17] was 20, the “Barnyardgrass plant response rating” value [2, 18] was 50 and the “Cocklebur plant response rating” value [3, 15] was 60. For the same compound, the “Plant response rating, Cocklebur” value [3, 16] was 70, the “Plant response rating, Cocklebur” value [3, 17] was 80 and the “Cocklebur plant response rating” value [3, 18] was 90. For the same compound, the “Corn plant response rating” value (corn (Zea mays); [15]) was 0, the “Plant response rating, Corn” value (corn (Zea mays); [16]) was 0 and the “Plant response rating, Corn” value (corn (Zea mays); [17]) was 0. For the same compound, the “Corn plant response rating” value (corn (Zea mays); [18]) was 0, the “Crabgrass plant response rating” value [4, 15] was 30 and the “Plant response rating, Crabgrass” value [4, 16] was 40. For the same compound, the “Plant response rating, Crabgrass” value [4, 17] was 20, the “Crabgrass plant response rating” value [4, 18] was 60 and the “Foxtail, Giant plant response rating” value [5, 15] was 0. For the same compound, the “Plant response rating, Foxtail, Giant” value [5, 16] was 10, the “Plant response rating, Foxtail, Giant” value [5, 17] was 0 and the “Foxtail, Giant plant response rating” value [5, 18] was 20. The “Lambsquarters plant response rating” value ([6]; Postemergence, 125 g ai/ha) was 80, the “Plant response rating, Lambsquarters” value [6, 16] was 90 and the “Lambsquarters plant response rating” value ([6]; Preemergence, 500 g ai/ha) was 90. For the same compound, the “Morningglory plant response rating” value [7, 15] was 80, the “Plant response rating, Morningglory” value [7, 16] was 80 and the “Plant response rating, Morningglory” value [7, 17] was 80. For the same compound, the “Morningglory plant response rating” value [7, 18] was 90, the “Pigweed plant response rating” value [8, 15] was 80 and the “Plant response rating, Pigweed” value [8, 16] was 90. The “Plant response rating, Pigweed” value [8, 17] was 80, the “Pigweed plant response rating” value [8, 18] was 90 and the “Velvetleaf plant response rating” value [9, 15] was 50. For the same compound, the “Plant response rating, Velvetleaf” value [9, 16] was 80, the “Plant response rating, Velvetleaf” value [9, 17] was 80 and the “Velvetleaf plant response rating” value [9, 18] was 90. The “Wheat plant response rating” value [10, 15] was 0, the “Plant response rating, Wheat” value [10, 16] was 0 and the “Plant response rating, Wheat” value [10, 17] was 0. The “Wheat plant response rating” value [10, 18] was 0, the “Blackgrass plant response rating” value [11, 19] was 0 and the “Plant response rating, Blackgrass” value ([11]; 500 g ai/ha, scale 0 to 100) was 0. For the same compound, the “Oat, Wild plant response rating” value (wild oat (Avena fatua); [19]) was 0, the “Plant response rating, Oat, Wild” value (wild oat (Avena fatua); 500 g ai/ha, scale 0 to 100) was 10 and the “Plant response rating, Barnyardgrass” value [12] was 0. For the same compound, the “Plant response rating, Ducksalad” value [13] was 0, the “Plant response rating, Rice” value (rice (Oryza sativa)) was 0 and the “Plant response rating, Sedge, Umbrella” value [14] was 0.
